Reference: ChEMBL document CHEMBL1201862, “PubChem BioAssay data set” (2004)
Where “and” joins values, the source holds several entries; their conditions need not be identical. Identical values can stand only once.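 How tested: cells in 96-well plates exposed to compound for 48 hours at five concentrations. GI50 marks 50% less growth.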 Calls of active or inactive are those of the source. Rule as the data show it: active = GI50 up to about 1.1 µM and inactive = higher.

Key:
Experiment in all cases: NCI anticancer screen, dose series, 48 h
MDA-MB-435 = system: MDA-MB-435
NCI/ADR-RES = system: NCI/ADR-RES
SNB-19 = system: SNB-19
A549 = system: A549
CAKI-1 = system: CAKI-1
PC-3 = system: PC-3
NCI-H226 = system: NCI-H226
COLO 205 = system: COLO 205
Malme-3M = system: Malme-3M
UACC-62 = system: UACC-62
LOX IMVI = system: LOX IMVI
NCI-H522 = system: NCI-H522
OVCAR-3 = system: OVCAR-3
A498 = system: A498
HL-60 = system: HL-60
SK-MEL-5 = system: SK-MEL-5
SNB-75 = system: SNB-75
BT-549 = system: BT-549
T47D = system: T47D

Measured: GI50

C=C/C(C)=C\CC1[C@](C)(O)CC[C@H]2C(C)(C)C(O)CC[C@]12C (stereo partly specified)
inactive: MDA-MB-435 > 100 µM | NCI/ADR-RES > 100 µM | SNB-19 > 100 µM | A549 > 100 µM | CAKI-1 > 100 µM | PC-3 70 µM | NCI-H226 > 100 µM | COLO 205 > 100 µM | Malme-3M > 100 µM | UACC-62 > 100 µM | LOX IMVI > 100 µM | NCI-H522 91.4 µM | OVCAR-3 92.3 µM | A498 > 100 µM | HL-60 17.7 µM | SK-MEL-5 84.1 µM | SNB-75 > 100 µM

C=CC(C)(C)n1cc(C2=C3OC(=O)C(c4cn(C(C)(C)C=C)c5ccccc45)=C3OC2=O)c2ccccc21
inactive: MDA-MB-435 > 100 µM | NCI/ADR-RES > 100 µM | SNB-19 > 100 µM | BT-549 > 100 µM | A549 > 100 µM | CAKI-1 > 100 µM | PC-3 > 100 µM | NCI-H226 > 100 µM | COLO 205 > 100 µM | Malme-3M > 100 µM | LOX IMVI > 100 µM | NCI-H522 > 100 µM | OVCAR-3 > 100 µM | A498 > 100 µM | HL-60 > 100 µM | SK-MEL-5 > 100 µM | SNB-75 > 100 µM

Cc1cc(NS(=O)(=O)c2ccc(NC(NC(=O)OC(C)C)(C(F)(F)F)C(F)(F)F)cc2)nc(C)n1
inactive: MDA-MB-435 > 100 µM | NCI/ADR-RES > 100 µM | SNB-19 > 100 µM | A549 > 100 µM | CAKI-1 > 100 µM | PC-3 > 100 µM | NCI-H226 > 100 µM | COLO 205 > 100 µM | Malme-3M > 100 µM | UACC-62 > 100 µM | LOX IMVI > 100 µM | T47D 60.7 µM | OVCAR-3 > 100 µM | A498 > 100 µM | HL-60 > 100 µM | SK-MEL-5 > 100 µM | SNB-75 > 100 µM

O=C(O)CCCc1ccc2c(c1)CC1(C2)Cc2cc3c(cc2C1)CCCC3
inactive: MDA-MB-435 17.3 µM | NCI/ADR-RES 31.8 µM | A549 6.43 µM | PC-3 24.6 µM | NCI-H226 31.6 µM | COLO 205 19.9 µM | Malme-3M 22 µM | UACC-62 > 100 µM | LOX IMVI 17.7 µM | NCI-H522 19.2 µM | T47D 35.6 µM | OVCAR-3 19.3 µM | A498 17.1 µM | HL-60 11.6 µM | SK-MEL-5 13.8 µM

CCN(CC)c1ccc(NC(=S)NN(C)C)cc1
inactive: MDA-MB-435 > 10 µM | NCI/ADR-RES > 10 µM | SNB-19 > 10 µM | A549 > 10 µM | CAKI-1 > 10 µM | PC-3 > 10 µM | NCI-H226 > 10 µM | COLO 205 > 10 µM | Malme-3M > 10 µM | UACC-62 > 10 µM | LOX IMVI > 10 µM | NCI-H522 > 10 µM | T47D > 10 µM | OVCAR-3 > 10 µM | A498 > 10 µM | HL-60 > 10 µM | SK-MEL-5 > 10 µM | SNB-75 > 10 µM

CCOC(=O)c1ccc(-c2ccc(Cl)cc2)[nH]1
inactive: MDA-MB-435 > 10 µM | NCI/ADR-RES > 10 µM | SNB-19 > 10 µM | BT-549 > 10 µM | A549 > 10 µM | NCI-H226 8.47 µM | Malme-3M > 10 µM | UACC-62 > 10 µM | NCI-H522 > 10 µM | OVCAR-3 > 10 µM | HL-60 > 10 µM | SK-MEL-5 > 10 µM | SNB-75 > 10 µM
active: PC-3 0.0161 µM

C/C(=N\O)c1ccc(OCc2cc(C(F)(F)F)cc(C(F)(F)F)c2)cc1
inactive: MDA-MB-435 43.8 µM | NCI/ADR-RES 61.2 µM | SNB-19 64.1 µM | A549 46.1 µM | CAKI-1 78.2 µM | PC-3 34.1 µM | NCI-H226 40.6 µM | COLO 205 29.9 µM | Malme-3M 41 µM | LOX IMVI 39 µM | NCI-H522 38.1 µM | T47D 75.3 µM | OVCAR-3 > 100 µM | A498 > 100 µM | HL-60 4.13 µM | SK-MEL-5 50.9 µM | SNB-75 51.9 µM

NC(=S)N/N=C1\C(=O)C=C(Nc2ccc(Cl)cc2Cl)c2ccccc21
inactive: MDA-MB-435 > 100 µM | NCI/ADR-RES 33.6 µM | SNB-19 25.5 µM | BT-549 18.7 µM | A549 > 100 µM | CAKI-1 15.8 µM | NCI-H226 33.6 µM | COLO 205 35.9 µM | UACC-62 2.64 µM | LOX IMVI 25.3 µM | T47D 23.5 µM | OVCAR-3 21.3 µM | A498 23.3 µM | HL-60 84.3 µM | SK-MEL-5 27.4 µM | SNB-75 11.5 µM

COC(=O)c1ccccc1/C=C1/Cc2ccccc2C1=O
inactive: MDA-MB-435 > 100 µM | NCI/ADR-RES 36.5 µM | A549 50.7 µM | CAKI-1 25.8 µM | PC-3 48.2 µM | NCI-H226 63.8 µM | COLO 205 30 µM | Malme-3M 50.5 µM | UACC-62 36.1 µM | LOX IMVI 17.8 µM | NCI-H522 31.7 µM | T47D 19.6 µM | OVCAR-3 23.8 µM | A498 > 100 µM | HL-60 30.1 µM | SK-MEL-5 18.6 µM | SNB-75 > 100 µM

COc1ccc(C2c3cc4c(cc3OC(NNc3ccccc3)C2C)OCO4)cc1 (stereo unspecified)
inactive: MDA-MB-435 4.71 µM | SNB-19 40.7 µM | BT-549 20.4 µM | A549 4.09 µM | CAKI-1 5.89 µM | PC-3 4.8 µM | NCI-H226 16.3 µM | COLO 205 7.06 µM | Malme-3M 8.47 µM | UACC-62 4.92 µM | LOX IMVI 16.6 µM | NCI-H522 2.77 µM | T47D 6.12 µM | OVCAR-3 4.82 µM | A498 17.2 µM | HL-60 5.25 µM | SK-MEL-5 17.9 µM | SNB-75 22.6 µM

CCOC(=O)c1c(-c2ccccc2)nc2ccccc2c1O
inactive: NCI/ADR-RES > 100 µM | SNB-19 > 100 µM | A549 > 100 µM | CAKI-1 > 100 µM | PC-3 > 100 µM | COLO 205 > 100 µM | Malme-3M > 100 µM | T47D > 100 µM | A498 > 100 µM | HL-60 > 100 µM | SK-MEL-5 > 100 µM | SNB-75 > 100 µM

Cc1ccccc1S(=O)(=O)Nn1cnc2ccc(S(=O)(=O)Nc3ccc(Cl)cc3)cc2c1=O
inactive: MDA-MB-435 82.8 µM | NCI/ADR-RES > 100 µM | SNB-19 > 100 µM | BT-549 > 100 µM | A549 > 100 µM | CAKI-1 > 100 µM | PC-3 16.1 µM | NCI-H226 > 100 µM | COLO 205 > 100 µM | Malme-3M > 100 µM | UACC-62 27.5 µM | LOX IMVI > 100 µM | NCI-H522 > 100 µM | OVCAR-3 85.5 µM | HL-60 > 100 µM | SNB-75 > 100 µM

CC1=C(CO)C(=O)O[C@@H]([C@@H](CO)[C@H]2CCC3C4C[C@@H](O)[C@@]5(O)CC=CC(=O)[C@]5(C)C4CC[C@@]32C)C1 (stereo partly specified)
inactive: MDA-MB-435 38.5 µM | NCI/ADR-RES > 100 µM | SNB-19 > 100 µM | BT-549 26.4 µM | A549 > 100 µM | CAKI-1 > 100 µM | NCI-H226 > 100 µM | COLO 205 30 µM | Malme-3M 94 µM | UACC-62 47 µM | LOX IMVI 38.5 µM | NCI-H522 39.2 µM | T47D 86.3 µM | OVCAR-3 22 µM | A498 63.4 µM | HL-60 31.2 µM | SK-MEL-5 51.4 µM | SNB-75 35.6 µM

CO[C@@H]1C[C@H]2[C@@H]3CC[C@H]([C@@H](C)CO)[C@@]3(C)CC[C@@H]2[C@@]2(C)CC[C@H]3C[C@]312
inactive: MDA-MB-435 27.5 µM | NCI/ADR-RES 24.9 µM | SNB-19 53.6 µM | A549 36 µM | CAKI-1 89.7 µM | PC-3 22.6 µM | NCI-H226 24.4 µM | COLO 205 17.6 µM | Malme-3M 19.5 µM | LOX IMVI 19.3 µM | NCI-H522 19.7 µM | T47D 20 µM | OVCAR-3 45.1 µM | A498 > 100 µM | HL-60 25.2 µM | SK-MEL-5 16.7 µM | SNB-75 74.3 µM

COc1ccc(-c2c(C#N)c(N)n(C3OC(CO)C(O)C(O)C3O)c(=S)c2C#N)cc1 (stereo unspecified)
inactive: SNB-19 > 100 µM | BT-549 > 100 µM and 76.9 µM | A549 > 100 µM | CAKI-1 > 100 µM | PC-3 > 100 µM and 99.1 µM | NCI-H226 > 100 µM | Malme-3M > 100 µM | UACC-62 > 100 µM | LOX IMVI > 100 µM and 77.4 µM | T47D > 100 µM and 93.3 µM | OVCAR-3 > 100 µM and 97.7 µM | A498 > 100 µM and 52.6 µM | HL-60 > 100 µM | SK-MEL-5 > 100 µM and 74 µM | SNB-75 > 100 µM

CCOC(=O)c1nc2ccccc2nc1NCc1ccc(OC)cc1
inactive: MDA-MB-435 > 100 µM | NCI/ADR-RES 68.1 µM | BT-549 > 100 µM | A549 > 100 µM | CAKI-1 > 100 µM | NCI-H226 > 100 µM | COLO 205 > 100 µM | Malme-3M > 100 µM | UACC-62 84.1 µM | LOX IMVI > 100 µM | NCI-H522 56.9 µM | T47D 80.9 µM | OVCAR-3 > 100 µM | A498 32.2 µM | HL-60 > 100 µM | SK-MEL-5 > 100 µM | SNB-75 48.8 µM
